Measurements published in ChEMBL document CHEMBL3352652, “Oleanolic acid analogs as NO, TNF-α and IL-1β inhibitors: synthesis, biological evaluation and docking studies” (Bioorg Med Chem Lett, 2014).
Converted amounts (≈) assume the structure as drawn.

Experiments:
[1] = system: RAW264.7; assay: Inhibition of LPS-induced NO production in mouse RAW264.7 cells compound preincubated for 1 hr before LPS treatment by Griess reaction; assay type: functional, cell-based
[2] = system: J774.A1; assay: Inhibition of LPS-induced NO production in mouse J774A1 cells compound preincubated for 1 hr before LPS treatment by Griess reaction; assay type: functional, cell-based
[3] = system: RAW264.7; assay: Cytotoxicity mouse RAW264.7 cells assessed as cell viability by MTT assay relative to control; assay type: cell-based
[4] = Cytotoxicity against mouse J774A1 cells assessed as cell viability by MTT assay relative to control; assay type: cell-based; details: J774.A1
[5] = system: RAW264.7; assay: Inhibition of LPS-induced TNF-alpha release in mouse RAW264.7 cells compound preincubated at 20 ug/ml for 1 hr before LPS treatment measured after 6 to 12 hrs by sandwich immunoassay; assay type: functional
[6] = system: J774.A1; assay: Inhibition of LPS-induced TNF-alpha release in mouse J774A1 cells compound preincubated at 20 ug/ml for 1 hr before LPS treatment measured after 6 to 12 hrs by sandwich immunoassay; assay type: functional
[7] = system: RAW264.7; assay: Inhibition of LPS-induced IL1-beta release in mouse RAW264.7 cells compound preincubated at 20 ug/ml for 1 hr before LPS treatment measured after 6 to 12 hrs by sandwich immunoassay; assay type: functional
[8] = system: J774.A1; assay: Inhibition of LPS-induced IL1-beta release in mouse J774A1 cells compound preincubated at 20 ug/ml for 1 hr before LPS treatment measured after 6 to 12 hrs by sandwich immunoassay; assay type: functional
[9] = system: RAW264.7; assay: Inhibition of LPS-induced TNF-alpha release in mouse RAW264.7 cells compound preincubated for 1 hr before LPS treatment measured after 6 to 12 hrs by sandwich immunoassay; assay type: functional, cell-based
[10] = system: J774.A1; assay: Inhibition of LPS-induced TNF-alpha release in mouse J774A1 cells compound preincubated for 1 hr before LPS treatment measured after 6 to 12 hrs by sandwich immunoassay; assay type: functional, cell-based
[11] = system: RAW264.7; assay: Inhibition of LPS-induced IL1-beta release in mouse RAW264.7 cells compound preincubated for 1 hr before LPS treatment measured after 6 to 12 hrs by sandwich immunoassay; assay type: functional, cell-based
[12] = system: J774.A1; assay: Inhibition of LPS-induced IL1-beta release in mouse J774A1 cells compound preincubated for 1 hr before LPS treatment measured after 6 to 12 hrs by sandwich immunoassay; assay type: functional, cell-based

Structure (SMILES) | IC50 [1] [µM] | IC50 [2] [µM] | IC50 [3] [µM] | IC50 [4] [µM] | inhibition at 20 µg/mL [5] [%] | inhibition at 20 µg/mL [6] [%] | inhibition at 20 µg/mL [7] [%] | inhibition at 20 µg/mL [8] [%] | IC50 [9] [µg/mL] | IC50 [10] [µg/mL] | IC50 [11] [µg/mL] | IC50 [12] [µg/mL]
COC(=O)[C@]12CCC(C)(C)C[C@H]1C1=CC[C@@H]3[C@@]4(C)CCC(=O)C(C)(C)[C@@H]4CC[C@@]3(C)[C@]1(C)CC2 | 31.7 | 33.5 | 79.3 | 82.5 | – | – | – | – | – | – | – | –
CC1(C)CC[C@]2(C(=O)O)CC[C@]3(C)C(=CC[C@@H]4[C@@]5(C)CC/C(=N\O)C(C)(C)[C@@H]5CC[C@]43C)[C@@H]2C1 | 39.2 | 41.3 | 82.4 | 85.5 | – | – | – | – | – | – | – | –
CC1(C)CC[C@]2(C(=O)Cl)CC[C@]3(C)C(=CC[C@@H]4[C@@]5(C)Cc6c([nH]c7ccccc67)C(C)(C)[C@@H]5CC[C@]43C)[C@@H]2C1 | 22.8 | 24.9 | 86.2 | 89.3 | – | – | – | – | – | – | – | –
CC1(C)CC[C@]2(C(=O)NN)CC[C@]3(C)C(=CC[C@@H]4[C@@]5(C)Cc6c([nH]c7ccccc67)C(C)(C)[C@@H]5CC[C@]43C)[C@@H]2C1 | 16.5 | 17.7 | 92.4 | 91 | 31.2 | 27.9 | 13.9 | 11.1 | – | – | – | –
CNC(=O)[C@]12CCC(C)(C)C[C@H]1C1=CC[C@@H]3[C@@]4(C)Cc5c([nH]c6ccccc56)C(C)(C)[C@@H]4CC[C@@]3(C)[C@]1(C)CC2 | 4.75 | 15.9 | 90.3 | 91.7 | 43.7 | 40.3 | 13.3 | 11.8 | – | – | – | –
CC1(C)CC[C@]2(C(=O)NC3CCCCC3)CC[C@]3(C)C(=CC[C@@H]4[C@@]5(C)Cc6c([nH]c7ccccc67)C(C)(C)[C@@H]5CC[C@]43C)[C@@H]2C1 | 2.66 | 10.8 | 96.4 | 97.3 | 47.8 | 51.9 | 37.5 | 31.7 | – | – | – | –
CC1(C)CC[C@]2(C(=O)NCc3ccccc3)CC[C@]3(C)C(=CC[C@@H]4[C@@]5(C)Cc6c([nH]c7ccccc67)C(C)(C)[C@@H]5CC[C@]43C)[C@@H]2C1 | 24.1 | 18.4 | 93.5 | 93.5 | – | – | – | – | – | – | – | –
Cc1ccc(C)c(NC(=O)[C@]23CCC(C)(C)C[C@H]2C2=CC[C@@H]4[C@@]5(C)Cc6c([nH]c7ccccc67)C(C)(C)[C@@H]5CC[C@@]4(C)[C@]2(C)CC3)c1 | 23.2 | 29.4 | 83.2 | 84.7 | – | – | – | – | – | – | – | –
Cc1ccc(NC(=O)[C@]23CCC(C)(C)C[C@H]2C2=CC[C@@H]4[C@@]5(C)Cc6c([nH]c7ccccc67)C(C)(C)[C@@H]5CC[C@@]4(C)[C@]2(C)CC3)cc1 | 22.6 | 26.1 | 80.4 | 83.5 | – | – | – | – | – | – | – | –
CC1(C)CC[C@]2(C(=O)Nc3ccc(Br)cc3)CC[C@]3(C)C(=CC[C@@H]4[C@@]5(C)Cc6c([nH]c7ccccc67)C(C)(C)[C@@H]5CC[C@]43C)[C@@H]2C1 | 25.4 | 27.4 | 85.3 | 87 | – | – | – | – | – | – | – | –
CC1(C)CC[C@]2(C(=O)O)CC[C@]3(C)C(=CC[C@@H]4[C@@]5(C)Cc6c([nH]c7ccccc67)C(C)(C)[C@@H]5CC[C@]43C)[C@@H]2C1 | 18.8 | 21 | 80.2 | 83.7 | – | – | – | – | – | – | – | –
CC(=O)O[C@H]1CC[C@]2(C)[C@H]3CC=C4[C@@H]5CC(C)(C)CC[C@]5(C(=O)O)CC[C@@]4(C)[C@]3(C)CC[C@H]2C1(C)C [ACETYL OLEANOLIC ACID] | 13.8 | 16.8 | 79.2 | 80.3 | 38.7 | 33.1 | 22.8 | 21.1 | – | – | – | –
COc1cc(/C=C/C(=O)CC(=O)/C=C/c2ccc(O)c(OC)c2)ccc1O [CURCUMIN] | – | 18.5 | – | – | – | – | – | – | 1.25 (≈ 3.39 µM) | 2.08 (≈ 5.65 µM) | 6.44 (≈ 17.5 µM) | 24.8 (≈ 67.4 µM)
C[C@@H]1C[C@H]2[C@@H]3CCC4=CC(=O)C=C[C@]4(C)[C@@]3(F)[C@@H](O)C[C@]2(C)[C@@]1(O)C(=O)CO [DEXAMETHASONE] | – | – | – | – | – | – | – | – | 0.016 (≈ 0.0408 µM) | 0.165 (≈ 0.42 µM) | 1.84 (≈ 4.69 µM) | 9.09 (≈ 23.2 µM)
COC(=O)[C@@H](N)CCCNC(=N)N[N+](=O)[O-] [L-NAME] | – | 73.2 | – | – | – | – | – | – | – | – | – | –
CC1(C)CC[C@]2(C(=O)O)CC[C@]3(C)C(=CC[C@@H]4[C@@]5(C)CC[C@H](O)C(C)(C)[C@@H]5CC[C@]43C)[C@@H]2C1 [OLEANOLIC_ACID] | 41.7 | 35.2 | 89.1 | 87.2 | – | – | – | – | – | – | – | –
CC1(C)CC[C@]2(C(=O)O)CC[C@]3(C)C(=CC[C@@H]4[C@@]5(C)CCC(=O)C(C)(C)[C@@H]5CC[C@]43C)[C@@H]2C1 [OLEANONIC ACID] | 38.5 | 38.8 | 89.6 | 87.7 | – | – | – | – | – | – | – | –
